How the values were obtained:
barnyardgrass [1] = assay: Test B pre-/postemergence herbicide test; format: in vivo, Echinochloa crus-galli; settings: for Barnyardgrass plant response rating: postemergence
How it was run: (§1)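 Visual rating, 0 (no effect) to 100 (complete control), versus untreated controls after 13–15 d in greenhouse. Pre- and postemergence applications (postemergence plants 2–18 cm, 1–4 leaves); flooded paddy arm at 2-leaf stage. Compounds in non-phytotoxic solvent plus surfactant.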

Surinam grass = assay: Test B pre-/postemergence herbicide test; format: in vivo, Urochloa decumbens; settings: for Surinam Grass plant response rating: scale 0 (no effect) to 100 (complete control)
How it was run: (§2)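 Seeds were planted and treated preemergence with compounds formulated in a non-phytotoxic solvent mixture containing surfactant, while plants at the 1- to 4-leaf stage (2 to 18 cm) received postemergence sprays. Flooded paddy plants were grown to the 2-leaf stage. After 13 to 15 days in a greenhouse, injury was visually rated 0–100 against untreated controls.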

cocklebur = assay: Test B pre-/postemergence herbicide test; format: in vivo, Xanthium strumarium; settings: for Cocklebur plant response rating: postemergence
How it was run: as §1

corn = assay: Test B pre-/postemergence herbicide test; format: in vivo, Zea mays; settings: for Corn plant response rating: postemergence
How it was run: as §2

large crabgrass = assay: Test B pre-/postemergence herbicide test; format: in vivo, Digitaria sanguinalis; settings: postemergence
How it was run: as §2

giant foxtail = assay: Test B pre-/postemergence herbicide test; format: in vivo, Setaria faberi; settings: for Foxtail, Giant plant response rating: postemergence
How it was run: as §2

lambsquarters = assay: Test B pre-/postemergence herbicide test; format: in vivo, Chenopodium album; settings: for Lambsquarters plant response rating: scale 0 (no effect) to 100 (complete control)
How it was run: as §2

morningglory = assay: Test B pre-/postemergence herbicide test; format: in vivo, Ipomoea coccinea; settings: for Morningglory plant response rating: scale 0 (no effect) to 100 (complete control)
How it was run: as §1

pigweed = assay: Test B pre-/postemergence herbicide test; format: in vivo, Amaranthus retroflexus; settings: for Pigweed plant response rating: scale 0 (no effect) to 100 (complete control)
How it was run: as §2

velvetleaf = assay: Test B pre-/postemergence herbicide test; format: in vivo, Abutilon theophrasti; settings: for Velvetleaf plant response rating: scale 0 (no effect) to 100 (complete control)
How it was run: as §2

blackgrass = assay: Test B postemergence herbicide test; format: in vivo, Alopecurus myosuroides; settings: postemergence
How it was run: (§3)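 Visual ratings, 0 (no effect) to 100 (complete control), made versus controls after 13–15 d greenhouse. Paddy plants treated at 2-leaf stage; postemergence plants at 1- to 4-leaf stage, 2–18 cm tall.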

wheat = assay: Test B postemergence herbicide test; format: in vivo, Triticum aestivum; set-up: key to Wheat plant response rating: 0 = no effect, 100 = complete control
How it was run: (§4)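 Plants grow to 1- to 4-leaf stage (2–18 cm) for postemergence spraying, or to 2-leaf stage for the paddy test. Formulated compound is applied. Greenhouse holding lasts 13–15 days. Response is scored visually relative to controls, 0 no effect to 100 complete control; a dash means no result.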

wild oat = assay: Test B postemergence herbicide test; format: in vivo, Avena fatua; settings: scale 0 (no effect) to 100 (complete control)
How it was run: as §4

rice [2] = assay: Test B flooded paddy test; format: in vivo, Oryza sativa; settings: 1000 g ai/ha, scale 0 to 100 (0 no effect, 100 complete control)
How it was run: as §3

[3] = tested on: small flower umbrella sedge; assay: Test B flooded paddy test; format: in vivo, Cyperus difformis; settings: 1000 g ai/ha, scale 0 to 100 (0 no effect, 100 complete control)
How it was run: as §3

ducksalad [4] = assay: Test B flooded paddy test; format: in vivo, Heteranthera limosa; settings: 1000 g ai/ha, scale 0 to 100 (0 no effect, 100 complete control)
How it was run: as §3

barnyardgrass [5] = assay: Test B flooded paddy test; format: in vivo, Echinochloa crus-galli; settings: 1000 g ai/ha, scale 0 to 100 (0 no effect, 100 complete control)
How it was run: as §3

rice [6] = assay: Test C flooded paddy test; format: in vivo, Oryza sativa
How it was run: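 Postemergence sprays applied to plants 2 to 18 cm tall (1- to 4-leaf stage); paddy species grown to 2-leaf stage under flooding. After 12 to 14 days in greenhouse, visual rating versus untreated controls on 0–100 scale (0 no effect, 100 complete control).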

[7] = tested on: smallflower umbrella sedge; assay: Test C flooded paddy test; format: in vivo, Cyperus difformis
ducksalad [8] = assay: Test C flooded paddy test; format: in vivo, Heteranthera limosa
barnyardgrass [9] = assay: Test C flooded paddy test; format: in vivo, Echinochloa crus-galli
How it was run: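 Visual rating, 0 (no effect) to 100 (complete control), vs. controls at 12–14 d in greenhouse. Postemergence: 1–4-leaf plants, 2–18 cm. Paddy: flooded, barnyardgrass at 2-leaf stage.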

[10] = 125 g ai/ha, 0 is no effect, 100 is complete control, preemergence
[11] = 125 g ai/ha, visual rating, scale 0 (no effect) to 100 (complete control)
[12] = 500 g ai/ha, scale 0 to 100, 0 is no effect, 100 is complete control
[13] = 125 g ai/ha, visual rating, postemergence
[14] = 125 g ai/ha, scale 0 to 100 (0 no effect, 100 complete control)
[15] = 250 g ai/ha, scale of 0 to 100, 0 is no effect, 100 is complete control
[16] = 500 g ai/ha, visual rating after 12 to 14 days, scale 0 to 100 (0 no effect, 100 complete control)

## Cc1nn(C(C)(C)C)nc1C(=O)Nc1cc(C(=O)N(C)C)ccc1F [Compound 378]
Barnyardgrass [1]; [10]
  Plant response rating (0 to 100 scale), Barnyardgrass: 30
Barnyardgrass [1]; [11]
  Barnyardgrass plant response rating: 0
Barnyardgrass [1]; [12]
  Barnyardgrass plant response rating: 0
Surinam grass; [10]
  Plant response rating (0 to 100 scale), Surinam Grass: 0
Surinam grass; [13]
  Surinam Grass plant response rating: 10
Surinam grass; Postemergence, 500 g ai/ha
  Surinam Grass plant response rating: 20
cocklebur; [10]
  Plant response rating (0 to 100 scale), Cocklebur: 0
cocklebur; [11]
  Cocklebur plant response rating: 0
cocklebur; [12]
  Cocklebur plant response rating: 0
corn; [10]
  Plant response rating (0 to 100 scale), Corn: 30
corn; [11]
  Corn plant response rating: 0
corn; [12]
  Corn plant response rating: 10
Large crabgrass; [11]
  Crabgrass, Large plant response rating: 0
Large crabgrass; [12]
  Crabgrass, Large plant response rating: 10
Giant foxtail; [10]
  Plant response rating (0 to 100 scale), Foxtail, Giant: 30
Giant foxtail; [11]
  Foxtail, Giant plant response rating: 0
Giant foxtail; [12]
  Foxtail, Giant plant response rating: 30
lambsquarters; [10]
  Plant response rating (0 to 100 scale), Lambsquarters: 90
lambsquarters; [13]
  Lambsquarters plant response rating: 40
lambsquarters; Postemergence, 500 g ai/ha
  Lambsquarters plant response rating: 70
morningglory; [10]
  Plant response rating (0 to 100 scale), Morningglory: 0
morningglory; [13]
  Morningglory plant response rating: 20
morningglory; Postemergence, 500 g ai/ha
  Morningglory plant response rating: 30
pigweed; [10]
  Plant response rating (0 to 100 scale), Pigweed: 90
pigweed; [13]
  Pigweed plant response rating: 40
pigweed; Postemergence, 500 g ai/ha
  Pigweed plant response rating: 70
velvetleaf; [10]
  Plant response rating (0 to 100 scale), Velvetleaf: 50
velvetleaf; [13]
  Velvetleaf plant response rating: 10
velvetleaf; Postemergence, 500 g ai/ha
  Velvetleaf plant response rating: 40
blackgrass; [11]
  Blackgrass plant response rating: 0
blackgrass; [12]
  Blackgrass plant response rating: 0
wheat; 125 g ai/ha, visual rating, scale 0 (no effect) to 100 (complete control), postemergence
  Wheat plant response rating: 0
wheat; 500 g ai/ha, scale 0 to 100, 0 no effect, 100 complete control, preemergence
  Wheat plant response rating: 100
wheat; Postemergence, 500 g ai/ha, scale 0 (no effect) to 100 (complete control)
  Wheat plant response rating: 0
Wild oat; [13]
  Oat, Wild plant response rating: 0
Wild oat; Postemergence, 500 g ai/ha
  Oat, Wild plant response rating: 20
Rice [2]
  Rice plant response rating: 70
[3]
  Sedge, Umbrella plant response rating: 80
Ducksalad [4]
  Ducksalad plant response rating: 90
Barnyardgrass [5]
  Barnyardgrass plant response rating: 80
Rice [6]; 62 g ai/ha, scale 0 to 100
  Rice plant response rating: 0
Rice [6]; [14]
  Rice plant response rating: 10
Rice [6]; [15]
  Rice plant response rating: 30
Rice [6]; [16]
  Plant response rating, Rice: 60
[7]; 62 g ai/ha, scale 0 to 100
  Sedge, Umbrella plant response rating: 0
[7]; [14]
  Sedge, Umbrella plant response rating: 15
[7]; [15]
  Sedge, Umbrella plant response rating: 55
[7]; [16]
  Plant response rating, Sedge, Umbrella: 80
Ducksalad [8]; 62 g ai/ha, scale 0 to 100
  Ducksalad plant response rating: 0
Ducksalad [8]; [14]
  Ducksalad plant response rating: 0
Ducksalad [8]; [15]
  Ducksalad plant response rating: 20
Ducksalad [8]; [16]
  Plant response rating, Ducksalad: 75
Barnyardgrass [9]; 62 g ai/ha, scale 0 to 100 (0 no effect, 100 complete control)
  Barnyardgrass plant response rating: 0
Barnyardgrass [9]; [14]
  Barnyardgrass plant response rating: 0
Barnyardgrass [9]; [15]
  Barnyardgrass plant response rating: 0
Barnyardgrass [9]; [16]
  Plant response rating, Barnyardgrass: 50
